# Results taken from publication PMC9532703, “A novel small molecule RK-019 inhibits FGFR2-amplification gastric cancer cell proliferation and induces apoptosis in vitro and in vivo” (Frontiers in Pharmacology, 2022).
# Experiments:
# Test in all cases: Kinase selectivity panel
# Format in all cases: biochemical
# Settings in all cases: read-out: Inhibition(%) @ 1 µM RK-019
# Arg(m) = biological target: T1, Arg(m) (Mus musculus, UniProt Q4JIM5)
# T1 construct: purchased Eurofins Discovery Services (KinaseProfiler)
# T1 sequence (Q4JIM5 2-1182 limits assumed): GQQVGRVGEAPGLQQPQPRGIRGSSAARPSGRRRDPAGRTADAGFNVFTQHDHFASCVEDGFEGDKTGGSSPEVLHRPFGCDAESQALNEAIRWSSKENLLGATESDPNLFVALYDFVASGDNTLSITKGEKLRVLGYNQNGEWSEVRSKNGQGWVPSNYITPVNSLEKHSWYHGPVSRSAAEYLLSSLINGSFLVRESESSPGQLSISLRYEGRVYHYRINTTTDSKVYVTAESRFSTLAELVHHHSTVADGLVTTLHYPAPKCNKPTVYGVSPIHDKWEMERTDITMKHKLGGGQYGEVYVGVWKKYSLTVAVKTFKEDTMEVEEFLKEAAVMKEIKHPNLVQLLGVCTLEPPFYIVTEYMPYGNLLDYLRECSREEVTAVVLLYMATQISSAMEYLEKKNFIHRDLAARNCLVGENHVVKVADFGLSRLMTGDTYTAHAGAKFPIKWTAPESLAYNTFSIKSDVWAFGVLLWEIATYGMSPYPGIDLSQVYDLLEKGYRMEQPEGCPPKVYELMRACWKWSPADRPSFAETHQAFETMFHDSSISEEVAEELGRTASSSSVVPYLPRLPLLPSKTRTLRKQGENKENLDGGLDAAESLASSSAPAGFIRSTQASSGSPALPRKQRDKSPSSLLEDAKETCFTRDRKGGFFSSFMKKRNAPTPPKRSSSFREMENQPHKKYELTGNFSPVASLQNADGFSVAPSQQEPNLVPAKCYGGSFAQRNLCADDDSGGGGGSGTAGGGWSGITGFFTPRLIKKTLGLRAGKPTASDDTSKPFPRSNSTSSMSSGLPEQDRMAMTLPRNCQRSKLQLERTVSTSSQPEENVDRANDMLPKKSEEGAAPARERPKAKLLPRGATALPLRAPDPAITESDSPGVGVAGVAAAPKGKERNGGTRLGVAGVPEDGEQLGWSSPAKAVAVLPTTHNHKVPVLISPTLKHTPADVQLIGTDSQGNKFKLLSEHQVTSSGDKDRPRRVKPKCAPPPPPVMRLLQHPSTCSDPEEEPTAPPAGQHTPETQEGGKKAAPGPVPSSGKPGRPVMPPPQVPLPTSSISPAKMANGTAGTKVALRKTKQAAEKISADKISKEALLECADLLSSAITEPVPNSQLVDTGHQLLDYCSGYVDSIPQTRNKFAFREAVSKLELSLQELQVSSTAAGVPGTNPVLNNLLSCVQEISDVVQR
# AMPKα2(h) = biological target: T2, AMPKα2(h) (Homo sapiens, UniProt P54646)
# T2 construct: purchased Eurofins Discovery Services (KinaseProfiler)
# In short: (§1)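 Inhibition ratio was measured at 1 µM test compound in an ATP-site competition binding format across 422 recombinant human kinases.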
# Aurora-B(h) = biological target: T3, Aurora-B(h) (Homo sapiens, UniProt Q96GD4)
# T3 construct: purchased Eurofins Discovery Services (KinaseProfiler)
# In short: as §1
# TTBK1(h) = biological target: T4, TTBK1(h) (Homo sapiens, UniProt Q5TCY1)
# T4 construct: purchased Eurofins Discovery Services (KinaseProfiler)
# In short: as §1
# PhKγ2(h) = biological target: T5, PhKγ2(h) (Homo sapiens, UniProt P15735)
# T5 construct: purchased Eurofins Discovery Services (KinaseProfiler)
# In short: as §1
# MSSK1(h) = biological target: T6, MSSK1(h) (Homo sapiens, UniProt Q9UPE1)
# T6 construct: purchased Eurofins Discovery Services (KinaseProfiler)
# In short: as §1
# ALK(h) = biological target: T7, ALK(h) (Homo sapiens, UniProt Q9UM73)
# T7 construct: purchased Eurofins Discovery Services (KinaseProfiler)
# In short: as §1
# [1] = biological target: T8, PI3 Kinase (p110a(E542K)/p85a)(h) (Homo sapiens, UniProt P42336, E542K)
# T8 construct: purchased Eurofins Discovery Services (KinaseProfiler)
# In short: as §1
# TAO1(h) = biological target: T9, TAO1(h) (Homo sapiens, UniProt Q7L7X3)
# T9 construct: purchased Eurofins Discovery Services (KinaseProfiler)
# In short: as §1
# WNK3(h) = biological target: T10, WNK3(h) (Homo sapiens, UniProt Q9BYP7)
# T10 construct: purchased Eurofins Discovery Services (KinaseProfiler)
# In short: as §1
# PKBγ(h) = biological target: T11, PKBγ(h) (Homo sapiens, UniProt Q9Y243)
# T11 construct: purchased Eurofins Discovery Services (KinaseProfiler)
# In short: as §1
# [2] = biological target: T12, PI3 Kinase (p110a/p65a)(m) (Mus musculus, UniProt P42337)
# T12 construct: purchased Eurofins Discovery Services (KinaseProfiler)
# TTBK2(h) = biological target: T13, TTBK2(h) (Homo sapiens, UniProt Q6IQ55)
# T13 construct: purchased Eurofins Discovery Services (KinaseProfiler)
# In short: as §1
# EphA2(h) = biological target: T14, EphA2(h) (Homo sapiens, UniProt P29317)
# T14 construct: purchased Eurofins Discovery Services (KinaseProfiler)
# In short: as §1
# Met(Y1248H)(h) = biological target: T15, Met(Y1248H)(h) (Homo sapiens, UniProt P08581, Y1230H)
# T15 construct: purchased Eurofins Discovery Services (KinaseProfiler)
# In short: as §1
# STK33(h) = biological target: T16, STK33(h) (Homo sapiens, UniProt Q9BYT3)
# T16 construct: purchased Eurofins Discovery Services (KinaseProfiler)
# T16 sequence (Q9BYT3 whole entry): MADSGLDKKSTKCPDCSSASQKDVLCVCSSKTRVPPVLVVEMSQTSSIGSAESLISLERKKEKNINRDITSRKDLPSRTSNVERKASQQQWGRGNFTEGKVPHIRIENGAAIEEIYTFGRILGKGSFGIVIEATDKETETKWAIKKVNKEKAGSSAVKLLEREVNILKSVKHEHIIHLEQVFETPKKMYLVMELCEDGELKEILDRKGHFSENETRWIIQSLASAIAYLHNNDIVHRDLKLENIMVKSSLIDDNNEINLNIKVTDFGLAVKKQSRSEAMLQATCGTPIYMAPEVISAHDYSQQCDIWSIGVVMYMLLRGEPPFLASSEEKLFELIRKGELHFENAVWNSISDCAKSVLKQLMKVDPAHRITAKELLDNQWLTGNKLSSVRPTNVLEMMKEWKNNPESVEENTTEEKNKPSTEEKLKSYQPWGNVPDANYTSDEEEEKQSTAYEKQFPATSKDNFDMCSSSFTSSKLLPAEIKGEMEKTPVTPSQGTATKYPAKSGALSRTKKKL
# In short: as §1
# JAK1(h) = biological target: T17, JAK1(h) (Homo sapiens, UniProt P23458)
# T17 construct: purchased Eurofins Discovery Services (KinaseProfiler)
# In short: as §1
# MLK1(h) = biological target: T18, MLK1(h) (Homo sapiens, UniProt P80192)
# T18 construct: purchased Eurofins Discovery Services (KinaseProfiler)
# In short: as §1
# ICK(h) = biological target: T19, ICK(h) (Homo sapiens, UniProt Q9UPZ9)
# T19 construct: purchased Eurofins Discovery Services (KinaseProfiler)
# In short: as §1
# CRIK(h) = biological target: T20, CRIK(h) (Homo sapiens, UniProt O14578)
# T20 construct: purchased Eurofins Discovery Services (KinaseProfiler)
# In short: as §1
# PI3 Kinase (p120g)(h) = biological target: T21, PI3 Kinase (p120g)(h) (Homo sapiens, UniProt P48736)
# T21 construct: purchased Eurofins Discovery Services (KinaseProfiler)
# In short: as §1
# HIPK1(h) = biological target: T22, HIPK1(h) (Homo sapiens, UniProt Q86Z02)
# T22 construct: purchased Eurofins Discovery Services (KinaseProfiler)
# In short: as §1
# HPK1(h) = biological target: T23, HPK1(h) (Homo sapiens, UniProt Q92918)
# T23 construct: purchased Eurofins Discovery Services (KinaseProfiler)
# In short: as §1
# PKCη(h) = biological target: T24, PKCη(h) (Homo sapiens, UniProt P24723)
# T24 construct: purchased Eurofins Discovery Services (KinaseProfiler)
# In short: as §1
# IRR(h) = biological target: T25, IRR(h) (Homo sapiens, UniProt P14616)
# T25 construct: purchased Eurofins Discovery Services (KinaseProfiler)
# T25 sequence (P14616 27-1297): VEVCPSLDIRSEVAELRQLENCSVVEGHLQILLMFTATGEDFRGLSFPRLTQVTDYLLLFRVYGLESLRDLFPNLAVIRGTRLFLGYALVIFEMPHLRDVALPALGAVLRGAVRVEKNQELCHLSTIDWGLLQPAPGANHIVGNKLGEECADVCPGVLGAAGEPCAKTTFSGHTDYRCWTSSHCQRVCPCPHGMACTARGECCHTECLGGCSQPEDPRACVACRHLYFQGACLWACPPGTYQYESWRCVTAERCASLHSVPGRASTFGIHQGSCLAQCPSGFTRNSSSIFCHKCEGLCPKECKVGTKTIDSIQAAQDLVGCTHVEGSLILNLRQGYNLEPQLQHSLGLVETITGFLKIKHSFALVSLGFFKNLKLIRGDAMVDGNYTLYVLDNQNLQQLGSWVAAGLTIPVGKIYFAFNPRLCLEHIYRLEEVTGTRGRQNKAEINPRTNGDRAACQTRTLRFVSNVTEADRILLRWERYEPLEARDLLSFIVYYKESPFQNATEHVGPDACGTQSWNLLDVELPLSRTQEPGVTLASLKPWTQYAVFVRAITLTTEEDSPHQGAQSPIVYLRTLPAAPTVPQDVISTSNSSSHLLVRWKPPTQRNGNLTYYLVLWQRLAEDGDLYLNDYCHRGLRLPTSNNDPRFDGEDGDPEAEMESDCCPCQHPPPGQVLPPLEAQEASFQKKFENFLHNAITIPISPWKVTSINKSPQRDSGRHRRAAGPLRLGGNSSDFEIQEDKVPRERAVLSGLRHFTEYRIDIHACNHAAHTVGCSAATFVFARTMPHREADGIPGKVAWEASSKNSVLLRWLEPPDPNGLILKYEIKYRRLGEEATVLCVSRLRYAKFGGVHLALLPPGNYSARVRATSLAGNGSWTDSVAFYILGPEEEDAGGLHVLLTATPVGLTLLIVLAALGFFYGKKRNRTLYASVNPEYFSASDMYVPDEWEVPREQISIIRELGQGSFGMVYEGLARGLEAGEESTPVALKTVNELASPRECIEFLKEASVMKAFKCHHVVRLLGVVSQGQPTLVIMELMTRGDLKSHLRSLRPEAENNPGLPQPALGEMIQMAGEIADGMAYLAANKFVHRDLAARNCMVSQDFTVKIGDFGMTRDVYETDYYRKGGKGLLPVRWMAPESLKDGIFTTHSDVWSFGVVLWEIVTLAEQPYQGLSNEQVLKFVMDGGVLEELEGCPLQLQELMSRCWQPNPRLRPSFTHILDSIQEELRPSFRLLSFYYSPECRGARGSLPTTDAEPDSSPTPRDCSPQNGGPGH
# In short: as §1
# VRK2(h) = biological target: T26, VRK2(h) (Homo sapiens, UniProt Q86Y07)
# T26 construct: purchased Eurofins Discovery Services (KinaseProfiler)
# In short: as §1
# ULK3(h) = biological target: T27, ULK3(h) (Homo sapiens, UniProt Q6PHR2)
# T27 construct: purchased Eurofins Discovery Services (KinaseProfiler)
# In short: as §1
# Blk(m) = biological target: T28, Blk(m) (Mus musculus, UniProt P16277)
# T28 construct: purchased Eurofins Discovery Services (KinaseProfiler)
# MINK(h) = biological target: T29, MINK(h) (Homo sapiens, UniProt Q8N4C8)
# T29 construct: purchased Eurofins Discovery Services (KinaseProfiler)
# In short: as §1
# ALK1(h) = biological target: T30, ALK1(h) (Homo sapiens, UniProt P37023)
# T30 construct: purchased Eurofins Discovery Services (KinaseProfiler)
# In short: as §1
# PAK5(h) = biological target: T31, PAK5(h) (Homo sapiens, UniProt Q9P286)
# T31 construct: purchased Eurofins Discovery Services (KinaseProfiler)
# In short: as §1
# Fms(h) = biological target: T32, Fms(h) (Homo sapiens, UniProt P07333)
# T32 construct: purchased Eurofins Discovery Services (KinaseProfiler)
# In short: as §1
# ATR/ATRIP(h) = biological target: T33, ATR/ATRIP(h) (Homo sapiens, UniProt Q13535)
# T33 construct: purchased Eurofins Discovery Services (KinaseProfiler)
# In short: as §1
# PKCδ(h) = biological target: T34, PKCδ(h) (Homo sapiens, UniProt Q05655)
# T34 construct: purchased Eurofins Discovery Services (KinaseProfiler)
# T34 sequence (Q05655 whole entry): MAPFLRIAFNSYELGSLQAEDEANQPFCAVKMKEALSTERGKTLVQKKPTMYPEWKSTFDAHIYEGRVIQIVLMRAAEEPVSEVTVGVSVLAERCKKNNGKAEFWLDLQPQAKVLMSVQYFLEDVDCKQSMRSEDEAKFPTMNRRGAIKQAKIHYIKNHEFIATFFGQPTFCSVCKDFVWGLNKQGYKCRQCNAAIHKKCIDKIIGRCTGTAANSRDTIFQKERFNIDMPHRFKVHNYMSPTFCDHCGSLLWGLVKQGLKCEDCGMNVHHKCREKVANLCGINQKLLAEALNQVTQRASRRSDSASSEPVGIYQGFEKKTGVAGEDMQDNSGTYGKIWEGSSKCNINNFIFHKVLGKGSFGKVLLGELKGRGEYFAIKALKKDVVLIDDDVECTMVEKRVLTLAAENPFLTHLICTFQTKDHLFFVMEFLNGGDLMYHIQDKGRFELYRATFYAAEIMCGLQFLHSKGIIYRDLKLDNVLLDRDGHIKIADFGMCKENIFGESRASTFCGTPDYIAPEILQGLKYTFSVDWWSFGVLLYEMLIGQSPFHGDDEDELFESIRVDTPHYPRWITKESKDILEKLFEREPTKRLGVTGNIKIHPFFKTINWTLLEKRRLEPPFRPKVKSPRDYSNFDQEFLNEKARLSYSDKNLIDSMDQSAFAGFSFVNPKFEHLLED
# In short: as §1
# ACK1(h) = biological target: T35, ACK1(h) (Homo sapiens, UniProt Q07912)
# T35 construct: purchased Eurofins Discovery Services (KinaseProfiler)
# In short: as §1
# CDKL3(h) = biological target: T36, CDKL3(h) (Homo sapiens, UniProt Q8IVW4)
# T36 construct: purchased Eurofins Discovery Services (KinaseProfiler)
# In short: as §1
# LKB1(h) = biological target: T37, LKB1(h) (Homo sapiens, UniProt Q15831)
# T37 construct: purchased Eurofins Discovery Services (KinaseProfiler)
# T37 sequence (Q15831 whole entry): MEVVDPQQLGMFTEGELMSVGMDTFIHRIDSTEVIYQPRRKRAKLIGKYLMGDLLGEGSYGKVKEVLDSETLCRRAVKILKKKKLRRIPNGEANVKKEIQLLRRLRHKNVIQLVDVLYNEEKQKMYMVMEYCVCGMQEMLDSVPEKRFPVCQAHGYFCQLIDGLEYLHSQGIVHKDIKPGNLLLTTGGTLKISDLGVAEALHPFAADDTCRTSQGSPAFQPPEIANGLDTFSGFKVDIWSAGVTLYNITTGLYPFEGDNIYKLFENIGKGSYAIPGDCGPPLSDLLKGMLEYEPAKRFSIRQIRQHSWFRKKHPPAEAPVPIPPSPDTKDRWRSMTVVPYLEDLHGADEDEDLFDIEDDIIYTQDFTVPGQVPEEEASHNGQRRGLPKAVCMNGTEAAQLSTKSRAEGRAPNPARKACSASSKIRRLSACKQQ
# T37 sequence (Q7RTN6 whole entry partner): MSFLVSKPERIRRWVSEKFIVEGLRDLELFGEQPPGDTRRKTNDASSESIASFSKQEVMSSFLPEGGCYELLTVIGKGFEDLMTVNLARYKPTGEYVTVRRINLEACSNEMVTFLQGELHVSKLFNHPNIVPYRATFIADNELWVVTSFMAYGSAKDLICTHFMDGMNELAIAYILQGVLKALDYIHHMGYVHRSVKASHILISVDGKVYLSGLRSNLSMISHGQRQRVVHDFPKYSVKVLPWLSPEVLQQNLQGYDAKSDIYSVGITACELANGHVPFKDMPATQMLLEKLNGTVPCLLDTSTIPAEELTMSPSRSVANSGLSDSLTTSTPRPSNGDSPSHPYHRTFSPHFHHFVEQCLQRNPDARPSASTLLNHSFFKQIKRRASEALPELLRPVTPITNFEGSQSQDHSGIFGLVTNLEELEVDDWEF
# T37 sequence (Q9Y376 whole entry partner): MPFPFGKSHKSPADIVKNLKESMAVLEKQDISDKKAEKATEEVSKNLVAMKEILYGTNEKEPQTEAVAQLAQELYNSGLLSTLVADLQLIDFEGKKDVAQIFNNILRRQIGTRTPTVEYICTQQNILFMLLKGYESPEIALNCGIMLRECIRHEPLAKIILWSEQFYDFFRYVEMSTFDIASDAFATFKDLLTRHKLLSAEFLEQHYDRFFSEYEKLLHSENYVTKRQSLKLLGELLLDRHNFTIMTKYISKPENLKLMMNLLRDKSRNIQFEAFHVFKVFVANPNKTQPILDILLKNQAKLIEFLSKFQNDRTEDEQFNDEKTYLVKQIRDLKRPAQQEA
# In short: as §1
smiles,measurement,setting,value
"COc1cc(OC)cc(N(CCN[C@H](C)CO)c2ccc3ncc(-c4cnn(C)c4)c(=O)n3c2)c1 [RK-019, (R)-7-((3,5-dimethoxyphenyl) (2-((1-hydroxypropan-2-yl)amino)ethyl)amino)-3-(1-methyl-1H-pyrazol-4-yl)-4H-pyrido [1,2-a]pyrimidin-4-one]",activity at 1 µM,Arg(m),88%
same,activity at 1 µM,AMPKα2(h),109%
same,activity at 1 µM,Aurora-B(h),87%
same,activity at 1 µM,TTBK1(h),90%
same,activity at 1 µM,PhKγ2(h),88%
same,activity at 1 µM,MSSK1(h),135%
same,activity at 1 µM,ALK(h),85%
same,activity at 1 µM,[1],98%
same,activity at 1 µM,TAO1(h),115%
same,activity at 1 µM,WNK3(h),110%
same,activity at 1 µM,PKBγ(h),94%
same,activity at 1 µM,[2],100%
same,activity at 1 µM,TTBK2(h),82%
same,activity at 1 µM,EphA2(h),61%
same,activity at 1 µM,Met(Y1248H)(h),113%
same,activity at 1 µM,STK33(h),98%
same,activity at 1 µM,JAK1(h),120%
same,activity at 1 µM,MLK1(h),99%
same,activity at 1 µM,ICK(h),119%
same,activity at 1 µM,CRIK(h),117%
same,activity at 1 µM,PI3 Kinase (p120g)(h),102%
same,activity at 1 µM,HIPK1(h),93%
same,activity at 1 µM,HPK1(h),95%
same,activity at 1 µM,PKCη(h),108%
same,activity at 1 µM,IRR(h),104%
same,activity at 1 µM,VRK2(h),104%
same,activity at 1 µM,ULK3(h),91%
same,activity at 1 µM,Blk(m),53%
same,activity at 1 µM,MINK(h),133%
same,activity at 1 µM,ALK1(h),98%
same,activity at 1 µM,PAK5(h),101%
same,activity at 1 µM,Fms(h),16%
same,activity at 1 µM,ATR/ATRIP(h),107%
same,activity at 1 µM,PKCδ(h),99%
same,activity at 1 µM,ACK1(h),104%
same,activity at 1 µM,CDKL3(h),102%
same,activity at 1 µM,LKB1(h),94%
